The results in this text go back to ChEMBL document CHEMBL1145610, “N-Acetylhexosaminidase inhibitory properties of C-1 homologated GlcNAc- and GalNAc-thiazolines” (Bioorg Med Chem Lett, 2008).

This assay concerns the target T1, B-N-acetylhexosaminidase (Streptomyces plicatus, UniProt O85361).
T1 sequence (O85361 whole entry): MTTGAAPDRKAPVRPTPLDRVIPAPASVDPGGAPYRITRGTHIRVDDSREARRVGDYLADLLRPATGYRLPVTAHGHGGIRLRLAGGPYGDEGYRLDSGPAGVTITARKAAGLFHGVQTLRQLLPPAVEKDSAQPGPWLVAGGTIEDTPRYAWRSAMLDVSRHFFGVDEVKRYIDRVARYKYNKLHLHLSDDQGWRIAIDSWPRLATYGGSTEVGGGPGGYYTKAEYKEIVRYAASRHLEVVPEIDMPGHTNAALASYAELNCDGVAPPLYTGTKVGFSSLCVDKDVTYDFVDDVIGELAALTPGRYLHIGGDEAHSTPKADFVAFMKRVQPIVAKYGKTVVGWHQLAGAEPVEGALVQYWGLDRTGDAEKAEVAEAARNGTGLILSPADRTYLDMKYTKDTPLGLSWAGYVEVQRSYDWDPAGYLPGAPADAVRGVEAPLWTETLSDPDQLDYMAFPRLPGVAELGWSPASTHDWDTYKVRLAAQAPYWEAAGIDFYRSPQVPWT
Put plainly: Inhibition of Streptomyces plicatus N-acetyl-hexosaminidase.
`Cc1nc2c(s1)O[C@H](CO)[C@H](O)[C@@H]2O` showed a Ki of 1600 µM.

Turning to `CC1=N[C@@H]2[C@@H](O)[C@@H](O)[C@@H](CO)O[C@]2(CNC(=O)OC(C)(C)C)S1`, the Ki was more than 2000 µM.

On to `CC(=O)NC1NC[C@H](CO)[C@H](O)[C@@H]1O` (single isomer, unassigned), for which the Ki came out at 21 µM.

Compound `CC1=N[C@@H]2[C@@H](O)[C@H](O)[C@@H](CO)O[C@]2(C)S1` came in with an inhibition constant (Ki) of 200 µM.

`CC1=N[C@@H]2[C@@H](O)[C@@H](O)[C@@H](CO)O[C@]2(CN)S1`: the inhibition constant Ki is more than 2000 µM.

Regarding `CC1=N[C@@H]2[C@@H](O)[C@H](O)[C@@H](CO)O[C@@H]2S1`, the Ki was 20 µM.

`CC1=N[C@@H]2[C@@H](O)[C@@H](O)[C@@H](CO)O[C@@H]2S1` yielded a Ki of 100 µM.
